What all share (assay type): functional, cell-based
What all share (conditions): Homo sapiens

Assay [1] has as its system MT4. Briefly: Antiviral activity against HIV1 HXB2 in MT4 cells.
For assay [2], the system named is MT4. Briefly: Antiviral activity against HIV D545701 in MT4 cells.
Assay [3] relates to MT4. Briefly: Antiviral activity against HIV1 EP13 in MT4 cells.

`COc1cccc(Oc2ccc(C[C@H](NC(=O)O[C@H]3CO[C@H]4OCC[C@H]43)[C@H](O)CN(CC(C)C)S(=O)(=O)c3ccc4c(c3)OCO4)cc2)c1`: the results for the IC50 in the assay on MT4 [1], with MT4 [2] and in the assay with MT4 [3] were 4.7 nM, 41 nM and 16 nM, respectively.
As to `CC(C)CN(C[C@@H](O)[C@H](Cc1ccc(Oc2cccc(F)c2)cc1)NC(=O)O[C@H]1CO[C@H]2OCC[C@H]21)S(=O)(=O)c1ccc2c(c1)OCO2`, the 50% inhibitory concentration (IC50) in the assay on MT4 [1] amounted to 5.7 nM; in the assay on MT4 [2], 48 nM; with MT4 [3], 17 nM.
On the same counts, the results for `COc1ccc(Oc2ccc(C[C@H](NC(=O)O[C@H]3CO[C@H]4OCC[C@H]43)[C@H](O)CN(CC(C)C)S(=O)(=O)c3ccc4c(c3)OCO4)cc2)cc1` are 2.1 nM, 27 nM and 6.9 nM.
Consider `Cc1cccc(C)c1OCC(=O)N[C@@H](Cc1ccccc1)[C@@H](O)C[C@H](Cc1ccccc1)NC(=O)[C@H](C(C)C)N1CCCNC1=O` [LOPINAVIR], for which the figures for the IC50 with MT4 [1], in the assay on MT4 [2] and in the assay with MT4 [3] were 40 nM, greater than 1000 nM and 400 nM, respectively.
The corresponding values for `CC(C)CN(C[C@@H](O)[C@H](Cc1ccc(OCCn2cncn2)cc1)NC(=O)O[C@H]1CO[C@H]2OCC[C@H]21)S(=O)(=O)c1ccc2c(c1)OCO2` are 21 nM, 12 nM and 8.3 nM.
On the same counts, the results for `CC(C)CN(C[C@@H](O)[C@H](Cc1ccc(Oc2ccccc2)cc1)NC(=O)O[C@H]1CO[C@H]2OCC[C@H]21)S(=O)(=O)c1ccc2c(c1)OCO2` are 7.5 nM, 62 nM and 21 nM.
In the case of `CC(=O)NCc1ccc(Oc2ccc(C[C@H](NC(=O)O[C@H]3CO[C@H]4OCC[C@H]43)[C@H](O)CN(CC(C)C)S(=O)(=O)c3ccc4c(c3)OCO4)cc2)cc1`, the concentration for half-maximal inhibition (IC50) in the assay on MT4 [1] stood at 6.2 nM; with MT4 [2], 6.3 nM; with MT4 [3], 3.4 nM.
`CC(C)CN(C[C@@H](O)[C@H](Cc1ccccc1)NC(=O)O[C@H]1CCOC1)S(=O)(=O)c1ccc(N)cc1` displayed a half-maximal inhibitory concentration (IC50) with MT4 [2] greater than 1000 nM.
Turning to `CC(C)CN(C[C@@H](O)[C@H](Cc1ccc(Oc2ccncn2)cc1)NC(=O)O[C@H]1CO[C@H]2OCC[C@H]21)S(=O)(=O)c1ccc2c(c1)OCO2`, the IC50 with MT4 [1] is 2 nM; with MT4 [2] it was 11 nM; in the assay on MT4 [3], 2.8 nM.
On to `CC(C)CN(C[C@@H](O)[C@H](Cc1ccc(OCc2ccc3ccccc3c2)cc1)NC(=O)O[C@H]1CO[C@H]2OCC[C@H]21)S(=O)(=O)c1ccc2c(c1)OCO2`, for which the IC50 in the assay with MT4 [1] amounted to 11 nM; in the assay with MT4 [2] it was 59 nM; in the assay with MT4 [3], 30 nM.
`CC(C)CN(C[C@@H](O)[C@H](Cc1ccc(OCc2ccc3ccccc3n2)cc1)NC(=O)O[C@H]1CO[C@H]2OCC[C@H]21)S(=O)(=O)c1ccc2c(c1)OCO2`: the figures for the IC50 in the assay with MT4 [1], in the assay on MT4 [2] and with MT4 [3] were 2.5 nM, 19 nM and 5.2 nM, respectively.
In the case of `CC(C)CN(C[C@@H](O)[C@H](Cc1ccc(Oc2ccc(CN3CCOCC3)cc2)cc1)NC(=O)O[C@H]1CO[C@H]2OCC[C@H]21)S(=O)(=O)c1ccc2c(c1)OCO2`, the IC50 stood at 1.2 nM in the assay with MT4 [1], 13 nM in the assay on MT4 [2] and 2.9 nM in the assay with MT4 [3].
`COC(=O)N[C@H](C(=O)N[C@@H](Cc1ccccc1)[C@@H](O)CN(Cc1ccc(-c2ccccn2)cc1)NC(=O)[C@@H](NC(=O)OC)C(C)(C)C)C(C)(C)C` [ATAZANAVIR]: the IC50 was found to be 25 nM in the assay on MT4 [1], 70 nM in the assay on MT4 [2] and 93 nM in the assay with MT4 [3].
Take `CC(C)CN(C[C@@H](O)[C@H](Cc1ccc(Oc2ccc(CN3CCCC3)cc2)cc1)NC(=O)O[C@H]1CO[C@H]2OCC[C@H]21)S(=O)(=O)c1ccc2c(c1)OCO2`: the concentration for half-maximal inhibition (IC50) worked out at 2.8 nM in the assay on MT4 [1], 19 nM in the assay with MT4 [2] and 4.6 nM in the assay on MT4 [3].
Take `CC(C)CN(C[C@@H](O)[C@H](Cc1ccc(OCCc2ccccc2)cc1)NC(=O)O[C@H]1CO[C@H]2OCC[C@H]21)S(=O)(=O)c1ccc2c(c1)OCO2`: the IC50 was 3.7 nM with MT4 [1], 25 nM in the assay on MT4 [2] and 8.7 nM in the assay with MT4 [3].
As to `CC(C)CN(C[C@@H](O)[C@H](Cc1ccc(OCc2cncs2)cc1)NC(=O)O[C@H]1CO[C@H]2OCC[C@H]21)S(=O)(=O)c1ccc2c(c1)OCO2`, the values for the half-inhibitory concentration (IC50) in the assay on MT4 [1], in the assay with MT4 [2] and in the assay on MT4 [3] were 1.9 nM, 6.5 nM and 2.5 nM, respectively.
With `CC(C)CN(C[C@@H](O)[C@H](Cc1ccc(Oc2ccc(F)cc2)cc1)NC(=O)O[C@H]1CO[C@H]2OCC[C@H]21)S(=O)(=O)c1ccc2c(c1)OCO2`, the results for the IC50 in the assay on MT4 [1], with MT4 [2] and in the assay on MT4 [3] were 3.3 nM, 29 nM and 8.1 nM, respectively.
Consider `CC(C)CN(C[C@@H](O)[C@H](Cc1ccccc1)NC(=O)O[C@H]1CO[C@H]2OCC[C@H]21)S(=O)(=O)c1ccc(N)cc1`, for which the IC50 in the assay on MT4 [1] was 3.9 nM; in the assay on MT4 [2], 32 nM; in the assay on MT4 [3] it was 6.8 nM.
For `CC(C)CN(C[C@@H](O)[C@H](Cc1ccc(OCc2cccc(C#N)c2)cc1)NC(=O)O[C@H]1CO[C@H]2OCC[C@H]21)S(=O)(=O)c1ccc2c(c1)OCO2`, the values for the IC50 in the assay with MT4 [1], in the assay with MT4 [2] and with MT4 [3] were 1.2 nM, 2.2 nM and 2.2 nM, respectively.
Consider `CC(C)CN(C[C@@H](O)[C@H](Cc1ccc(OCc2cscn2)cc1)NC(=O)O[C@H]1CO[C@H]2OCC[C@H]21)S(=O)(=O)c1ccc2c(c1)OCO2`, for which the values for the IC50 with MT4 [1], with MT4 [2] and in the assay on MT4 [3] were 0.6 nM, 3.5 nM and 1.2 nM, respectively.
For `CC(C)CN(C[C@@H](O)[C@H](Cc1ccc(Oc2ccc(CO)cc2)cc1)NC(=O)O[C@H]1CO[C@H]2OCC[C@H]21)S(=O)(=O)c1ccc2c(c1)OCO2`, the IC50 in the assay with MT4 [1] is 1.6 nM; in the assay on MT4 [2], 8.4 nM; with MT4 [3] it was 1.6 nM.
As to `COC(=O)NCc1ccc(Oc2ccc(C[C@H](NC(=O)O[C@H]3CO[C@H]4OCC[C@H]43)[C@H](O)CN(CC(C)C)S(=O)(=O)c3ccc4c(c3)OCO4)cc2)cc1`, the IC50 in the assay with MT4 [1] was 1.3 nM; with MT4 [2], 6.8 nM; in the assay on MT4 [3] it was 2.2 nM.
Turning to `CC(C)c1nc(CN(C)C(=O)N[C@H](C(=O)N[C@@H](Cc2ccccc2)C[C@H](O)[C@H](Cc2ccccc2)NC(=O)OCc2cncs2)C(C)C)cs1` [RITONAVIR], the concentration for half-maximal inhibition (IC50) in the assay on MT4 [1] is 268 nM; in the assay on MT4 [2] it was greater than 1000 nM; in the assay on MT4 [3], greater than 1000 nM.
As to `CC(C)CN(C[C@@H](O)[C@H](Cc1ccc(OCc2nccs2)cc1)NC(=O)O[C@H]1CO[C@H]2OCC[C@H]21)S(=O)(=O)c1ccc2c(c1)OCO2`, the IC50 in the assay with MT4 [1] stood at 0.9 nM; with MT4 [2], 5.1 nM; with MT4 [3], 1.5 nM.
`Cc1c(O)cccc1C(=O)N[C@@H](CSc1ccccc1)[C@H](O)CN1C[C@H]2CCCC[C@H]2C[C@H]1C(=O)NC(C)(C)C` had an IC50 with MT4 [2] greater than 1000 nM.
For `CC(C)(C)NC(=O)[C@@H]1C[C@@H]2CCCC[C@@H]2CN1C[C@@H](O)[C@H](Cc1ccccc1)NC(=O)[C@H](CC(N)=O)NC(=O)c1ccc2ccccc2n1`, the IC50 in the assay on MT4 [1] was 60 nM; in the assay with MT4 [2], 603 nM; in the assay with MT4 [3] it was 80 nM.

(Values after ChEMBL document CHEMBL1146125, “Ultra-potent P1 modified arylsulfonamide HIV protease inhibitors: the discovery of GW0385” (Bioorg Med Chem Lett, 2006).)
